Experimental data as given in article PMC11802738 (Nature Communications, 2025).

How the values were obtained:
[1] = molecular target: SpNanA (GRAB-Sia = SpNanA D372N) (Streptococcus pneumoniae, UniProt P62576, D372N); settings: PBS; 50 μM protein in cell, 1 mM ligand in syringe; monomeric GRAB-Sia
[2] = molecular target: T1, RgNanH (GRAB-Sia3 = RgNanH D282A) (Mediterraneibacter gnavus, UniProt A7B557, D282A); assay: isothermal titration calorimetry; assay type: binding; settings: PBS; 50 μM protein in cell, 1 mM ligand in syringe; monomeric GRAB-Sia3
T1 sequence (A7B557 243-723 D282A): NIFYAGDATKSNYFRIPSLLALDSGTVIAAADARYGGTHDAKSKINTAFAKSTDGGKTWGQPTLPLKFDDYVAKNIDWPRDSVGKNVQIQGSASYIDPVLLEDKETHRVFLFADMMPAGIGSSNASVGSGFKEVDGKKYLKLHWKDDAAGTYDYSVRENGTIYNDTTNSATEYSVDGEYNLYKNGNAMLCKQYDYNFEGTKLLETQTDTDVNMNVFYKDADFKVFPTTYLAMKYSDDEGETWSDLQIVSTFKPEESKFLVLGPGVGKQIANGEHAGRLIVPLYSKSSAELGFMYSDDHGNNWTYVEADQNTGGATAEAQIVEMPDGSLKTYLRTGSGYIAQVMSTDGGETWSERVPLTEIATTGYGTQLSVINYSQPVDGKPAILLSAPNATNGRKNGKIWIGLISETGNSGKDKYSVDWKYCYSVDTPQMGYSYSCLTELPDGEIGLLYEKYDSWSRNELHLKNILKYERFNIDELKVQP

Structure (SMILES)	Kd [1]	Kd [2]
CC(=O)N[C@H]1[C@H]([C@H](O)[C@H](O)CO)O[C@@](O[C@H]2[C@@H](O)[C@@H](CO)O[C@@H](O[C@H]3[C@H](O)[C@@H](O)C(O)O[C@@H]3CO)[C@@H]2O)(C(=O)O)C[C@@H]1O (stereo partly drawn) [3′SL]	17.8 µM	7.15 µM
CC(=O)N[C@H]1[C@H]([C@H](O)[C@H](O)CO)O[C@@](OC[C@H]2O[C@@H](O[C@H]3[C@H](O)[C@@H](O)C(O)O[C@@H]3CO)[C@H](O)[C@@H](O)[C@H]2O)(C(=O)O)C[C@@H]1O (stereo partly drawn) [6′SL]	19.1 µM	
